Assay [1] deals with human vasopressin V2 receptor (Homo sapiens, UniProt P30518). Briefly: Human vasopressin V2 receptor binding assay on 1321N1 cell line. Conditions: 1321N1 cell line; read-out: Ki on hV2 1321N1 cell line. The protocol:
Human Vasopressin V2 Receptor Binding Assay Cells and Radioligand
To determine the final affinity value, the results of at least two independent experiments were taken into account.
Non-specific binding values were determined in the presence of an unlabeled 1.2×10^−6 M (Arg^8)-vasopressin. Samples were incubated in a total volume of 0.55 ml for 90 minutes at 27° C. Membrane-bound and free ligands were separated by filtration through a 0.5% polyethyleneimine-impregnated UniFilter® GF/B™. After drying the filter plates, 40 μl Microscint-20 (Packard) scintillation cocktail was added to the samples. Finally, radioactivity was measured using MicroBeta^2 Microplate Counter (Perkin Elmer).
The radioligand displacement ability of a substance is determined in at least two independent experiments. Specific radioligand binding can be defined as the difference between total and non-specific binding in the presence of a saturation amount of the unlabeled ligand or different concentrations of the substance to be tested. The results are given as a percentage of inhibition of the specific binding achieved in the presence of the substance to be tested.
During fitting, the asymptotes are not fixed. The Ki values (inhibition constant) are given with Cheng-Prusoff equation Ki=IC50/[1+(L/KD)] wherein [L] is the radioligand concentration used in the experiment and [KD] is the affinity of the radioactively labelled ligand for the given receptor. The KD is determined beforehand using the Scatchard curve.

For a further assay, the target named is mouse V1a receptor (Mus musculus, UniProt Q62463). Nature of the assay: Functional V1a in vivo test: inhibition of oxytocin-induced scratching behaviour. The conditions noted are these: mice. The method in brief: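 Male NMRI mice received test substance or vehicle, then oxytocin 0.3 mg/kg s.c. Scratching was recorded by LABORAS after 1 h cage habituation. Inhibition was expressed as % between the saline (0%) and vehicle-plus-oxytocin (100%) group means, analysed by ANOVA with Tukey test.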

Marks after values point to notes of the source that are not given here.

mouse V1a receptor, sequence (Q62463 whole entry): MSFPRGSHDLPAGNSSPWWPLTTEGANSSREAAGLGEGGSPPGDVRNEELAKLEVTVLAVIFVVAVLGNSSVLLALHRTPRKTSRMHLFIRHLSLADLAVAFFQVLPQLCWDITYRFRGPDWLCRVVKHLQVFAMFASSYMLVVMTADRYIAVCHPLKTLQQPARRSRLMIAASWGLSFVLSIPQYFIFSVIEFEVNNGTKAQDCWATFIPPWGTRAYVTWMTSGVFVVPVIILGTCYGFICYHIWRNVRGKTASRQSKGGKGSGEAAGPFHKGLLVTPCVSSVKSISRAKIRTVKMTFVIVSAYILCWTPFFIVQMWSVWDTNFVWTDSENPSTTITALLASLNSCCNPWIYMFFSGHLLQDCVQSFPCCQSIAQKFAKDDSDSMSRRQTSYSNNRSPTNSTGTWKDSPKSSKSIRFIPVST
human vasopressin V2 receptor, sequence (P30518 whole entry): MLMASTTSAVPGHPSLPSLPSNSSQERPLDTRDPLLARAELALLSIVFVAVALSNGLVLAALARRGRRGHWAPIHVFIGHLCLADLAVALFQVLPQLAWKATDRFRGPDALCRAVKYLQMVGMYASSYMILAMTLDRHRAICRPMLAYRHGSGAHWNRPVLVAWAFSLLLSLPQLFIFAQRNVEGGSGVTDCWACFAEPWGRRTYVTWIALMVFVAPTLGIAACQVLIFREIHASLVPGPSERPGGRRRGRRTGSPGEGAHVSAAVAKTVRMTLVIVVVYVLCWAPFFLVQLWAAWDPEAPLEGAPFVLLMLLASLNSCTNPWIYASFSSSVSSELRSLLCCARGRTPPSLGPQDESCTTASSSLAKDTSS

A word on the Ki: it is the equilibrium dissociation constant of an inhibitor or competing ligand from its target. For `Brc1ccc2c(c1)CC1(Cc3nnc([C@H]4CC[C@H](Oc5ccccn5)CC4)n3-2)OCCO1` [Example 62, 8′-bromo-1′-[trans-4-(pyridin-2-yloxy)cyclohexyl]-4′H,6′H-spiro[1,3-dioxolane-2,5′ [1,2,4]triazolo[4,3-a][1]benzazepine]], the Ki in assay [1] came out at 53 nM. Besides, the “inhibition (%) of oxytocin-induced scratching behaviour response” value (shortened to “inhibition (%)”) on mouse V1a receptor (10 mg/kg p.o. pretreatment) turned out to be 99%.

As to `CC(=O)NC1Cc2cc(Cl)ccc2-n2c(nnc2[C@H]2CC[C@H](Oc3ccccn3)CC2)C1` (stereo partly drawn) [Example 9, N-{8-chloro-1-[trans-4-(pyridin-2-yloxy)cyclohexyl]-5,6-dihydro-4H-[1,2,4]triazolo[4,3-a][1]benzazepin-5-yl}acetamide], the Ki in assay [1] came to 1190 nM. In addition, the “inhibition (%)” value against mouse V1a receptor (after i.p. treatment (table title: 10 mg/kg)) was 106* %.

Take `N[C@@H]1Cc2cc(Cl)ccc2-n2c(nnc2[C@H]2CC[C@H](Oc3ccccn3)CC2)C1` [Example 8, (5R)-8-chloro-1-[trans-4-(pyridin-2-yloxy)cyclohexyl]-5,6-dihydro-4H-[1,2,4]triazolo[4,3-a][1]benzazepine-5-amine]: the Ki in assay [1] was found to be 3050 nM. For the same compound, at mouse V1a receptor (10 mg/kg p.o. pretreatment), the “inhibition (%)” value is 64%.

As for `c1ccc(O[C@H]2CC[C@H](c3nnc4n3-c3ccccc3CC3(C4)OCCO3)CC2)nc1` [Example 63, 1′-[trans-4-(pyridin-2-yloxy)cyclohexyl]-4′H,6′H-spiro[1,3-dioxolane-2,5′-[1,2,4]triazolo[4,3-a][1]benzazepine]], the Ki in assay [1] was determined as 575 nM. Further, the “inhibition (%)” value on mouse V1a receptor (10 mg/kg p.o. pretreatment) came out at 49%.

`O[C@@H]1Cc2cc(Cl)ccc2-n2c(nnc2[C@H]2CC[C@H](Oc3ccccn3)CC2)C1` [Example 57, (5R)-8-chloro-1-[trans-4-(pyridin-2-yloxy)cyclohexyl]-5,6-dihydro-4H-[1,2,4]triazolo[4,3-a][1]benzazepin-5-ol]: the Ki in assay [1] came to 446 nM. For the same compound, on mouse V1a receptor (10 mg/kg p.o. pretreatment), the “inhibition (%)” value came out at 84%.

As to `OC1Cc2cc(Cl)ccc2-n2c(nnc2[C@H]2CC[C@H](Oc3ccccn3)CC2)C1` (stereo partly drawn) [Example 55, 8-chloro-1-[trans-4-(pyridin-2-yloxy)cyclohexyl]-5,6-dihydro-4H-[1,2,4]triazolo[4,3-a][1]benzazepin-5-ol], the Ki in assay [1] is 469 nM. In addition, the “inhibition (%)” value at mouse V1a receptor (10 mg/kg p.o. pretreatment) amounted to 91%.

In the case of `O=C1Cc2cc(Cl)ccc2-n2c(nnc2[C@H]2CC[C@H](Oc3ccccn3)CC2)C1` [Example 54, 8-chloro-1-[trans-4-(pyrin-2-yloxy)cyclohexyl]-4H-[1,2,4]triazolo[4,3-a][1]benzazepin-5(6H)-one], in assay [1], the inhibitory constant (Ki) was found to be 662 nM. The “inhibition (%)” value at mouse V1a receptor (10 mg/kg p.o. pretreatment) is given as 70%.

These data come from patent US11298363B2, “Triazolobenzazepines as vasopressin V1a receptor antagonists” (RICHTER GEDEON NYRT., priority 2017, dated 2022).
